Values quoted from earlier work in patent US7625898B2, “Posaconazole polymer conjugates and methods of treatment using posaconazole and polymer conjugates thereof” (Enzon Pharmaceuticals, Inc., priority 2007, dated 2009).

Conditions: background statement on unmodified posaconazole

CC[C@@H]([C@H](C)O)n1ncn(-c2ccc(N3CCN(c4ccc(OC[C@@H]5CO[C@@](Cn6cncn6)(c6ccc(F)cc6F)C5)cc4)CC3)cc2)c1=O [Posaconazole, posaconazole]
water solubility: < 2 µg/mL
